The results in this text go back to US20070060617A1, “2-Methoxy-5(5-trifluoromethyl-tetrazol-1-yl-benzyl)-2s-phenyl-piperdin-3s-yl)-amine for the treatment of social phobia” (priority 2004, published 2007).

Counter-ions that a name gives are not always drawn.

The subject of this assay is patients suffering from social phobia (Social Anxiety Disorder). The assay can be described thus: double-blind, placebo-controlled study in patients suffering from social phobia (self-report questionnaires, state anxiety measures, verbal performance, PET). It counts as in vivo, human. The note with it: NK1-antagonist group, daily oral dose of 5 mg, administered four weeks. The text has this:
The first study was a double-blind, placebo-controlled study of the effect of [2-methoxy-5-(5-trifluoromethyl-tetrazol-1-yl-benzyl)]-(2-phenyl-piperidin-3-yl)-amine dihydrochloride in patients suffering from social phobia (otherwise known as Social Anxiety Disorder). Thirty six patients aged between 19 and 48 meeting the DSM-IV criteria for social phobia (as set out in Diagnostic and Statistical Manual of Mental Disorders, 4th Edition, published by the American Psychiatric Association) were selected. […] The effect of [2-methoxy-5(5-trifluoromethyl-tetrazol-1-yl-benzyl)]-(2-phenyl-piperidin-3-yl)-amine dihydrochloride on anxiety symptoms and brain activity in patients diagnosed with social phobia was evaluated using self-report questionnaires (the Social Phobia Scale (SPS), the Social Interaction Anxiety Scale (SIAS), the Personal Report on Confidence as a Speaker (PRCS), the Social Phobia Screening Questionnaire (SPSQ), the Sheehan Disability Inventory (SDI), self-report versions of the Liebowitz Social Anxiety Scale (LSAS-SR) and the Global Assessment of Functioning (GAF) scale), state anxiety measures (the Speilberger state-anxiety inventory (STAI-S), subjective ratings of fear and distress on 0-100 (min-max) scales and heart rate), verbal performance (comparing the number of spoken syllables during the first ten seconds of each videotaped speech) and PET assessments.

With `COc1ccc(-n2nnnc2C(F)(F)F)cc1CN[C@H]1CCCN[C@H]1c1ccccc1` [[2-methoxy-5-(5-trifluoromethyl-tetrazol-1-yl-benzyl)]-(2-phenyl-piperidin-3-yl)-amine dihydrochloride], the “effect compared with placebo” value is given as “generally superior to placebo” and the “improvement of patients with social phobia after short-term treatment” value is reported as “significantly improved”.
